Earlier results on 1 compound are cited in patent publication US10827752B2, “Disinfectant composition” (priority 2010, dated 2020).

SMILES strings stand for the structures. Entries after “also recorded” stand apart in the source; their conditions may differ.

This series concerns spores. Particulars: approximately 2500 ppm of peracetic acid.

For the compound `CC(=O)OO` [peracetic acid], the sporicidal action entry was “excellent sporicidal action; also recorded: excellent sporicidal results”.
